Experimental data as given in patent US9253983B2, “Triazole compound and use thereof” (KUREHA CORPORATION, priority 2011, dated 2016).

Assays:
Penicillium italicum = assay: Test 2 for antifungal effect, plate medium: P.i; assay type: cell-based; details: PDA plate medium
Protocol: (§1) Compound (1-1b) or Compound (1-2b) was dissolved in dimethyl sulfoxide, and the resulting solution was added to a PDA medium (potato dextrose-agar medium) at about 60° C. The medium and the solution were mixed thoroughly in a conical flask, poured into a petri dish, and allowed to solidify. In this way, a plate medium containing Compound (1-1b) or Compound (1-2b) at a certain concentration was prepared.
(§2) Meanwhile, test microorganisms cultured on a plate medium in advance were cut out with the use of a cork borer 4 mm in diameter, and were inoculated onto the compound-containing plate medium. After the inoculation, the pathogens were cultured at their optimum growth temperatures (for example, refer to LIST OF CULTURES 1996 microorganisms 10th edition, Institute for Fermentation (foundation)) for 1 day to 7 days, and their growth was determined by measuring the diameter of their flora. The extent of growth of the pathogens on the compound-containing plate medium was compared with that of pathogens on a plate medium where no compound was added, and mycelial growth inhibition rate was calculated as in Experiment Example 10. Note that, in Experiment Example 11, controls used in the antifungal effect tests are Compound (1-1a) and Compound (1-2a) instead of Compound (1-1b) and Compound (1-2b), respectively.
(§3) The results were rated on a 1-to-5 scale as in Experiment Example 10.

Botrytis cinerea = assay: Controlling effect on cucumber gray mold by foliage spray treatment (Tests 1 and 2); assay type: in vivo; details: four days after inoculation
Protocol: The cucumber plants had been grown in square plastic pots (6 cm×6 cm). After the suspension was then left to dry, paper discs (8 mm in diameter) impregnated with a spore suspension of Botrytis cinerea w ere placed on the leaves, and the plants were kept at 20° C. in a high humidity environment. Four days after inoculation, the lesion degree of the cucumber gray mold was examined in accordance with the criteria shown in Table 1, and the protective values were calculated by the following equation: Protective value (%)=(1−Average lesion degree in sprayed plot/Average lesion degree in unsprayed plot)×100.
The cucumber plants had been grown in square plastic pots (6 cm×6 cm). After the leaves were air-dried, paper discs (8 mm in diameter) impregnated with a spore suspension of cucumber graymold-causing microorganisms were placed on the leaves, and the plants were kept at 20° C. in a high humidity environment. 4 days after the inoculation, the lesion degree of the cucumber gray mold was examined, and the protective values were calculated as were in Experiment Example 1.

Puccinia recondita = assay: Controlling effect on wheat brown rust (leaf rust) by foliage spray treatment (Tests 1 and 2); assay type: in vivo; details: foliage spray 0.8 mg/L, 1,000 L/ha, 11 days after inoculation
Protocol: The wheat plants had been grown in square plastic pots (6 cm×6 cm). The suspensions were left to dry, and inoculated with spores of Puccinia recondita (adjusted at 200 spores per field of vision, Gramin S was added at 60 ppm) by spraying, and kept at 25° C. in a high humidity environment for 48 hours. After that, the plants were kept in a greenhouse. 11 days after the inoculation, the lesion degree of the wheat leaf rust was examined in accordance with the criteria shown in Table 4, and the protective values were calculated by the following equation. Protective value (%)=(1−Average lesion degree in sprayed plot/Average lesion degree in unsprayed plot)×100
The wheat plants had been grown in square plastic pots (6 cm×6 cm). The leaves were air-dried, and inoculated with spores of Puccinia recondita (adjusted at 200 spores per field of vision, Gramin S was added at 60 ppm) by spraying, and kept at 25° C. in a high humidity environment for 48 hours. After that, the plants were kept in a greenhouse. 11 days after the inoculation, the lesion degree of the wheat leaf rust was examined, and the protective values were calculated as were in Experiment Example 2.

Glomerella cingurata = assay: Test 1 for antifungal effect, plate medium: G.c; assay type: cell-based; details: PDA plate medium
Protocol: as §1, with “(1-1a)” for “(1-1b)”, “(1-2a)” for “(1-2b)”
(§4) Meanwhile, test microorganisms cultured on a plate medium in advance were cut out with the use of a cork borer 4 mm in diameter, and were inoculated onto the compound-containing plate medium. After the inoculation, the microorganisms were cultured at their optimum growth temperatures (for example, refer to LIST OF CULTURES 1996 microorganisms 10th edition, Institute for Fermentation (foundation)) for 1 day to 7 days, and their growth was determined by measuring the diameter of their flora. The extent of growth of the microorganisms on the compound-containing plate medium was compared with that of microorganisms on a plate medium where no compound was added, and mycelial growth inhibition rate was calculated by the following equation: R=100(dc−dt)/dc where R is mycelial growth inhibition rate (%), dc is the flora diameter in untreated plate, and dt is the flora diameter in plate treated with the compound.
(§5) A larger antifungal index indicates a better antifungal effect.

Rhizopus oryzae = assay: Test 1 for antifungal effect, plate medium: R.o; assay type: cell-based; details: PDA plate medium
Protocol: as §1, with “(1-1a)” for “(1-1b)”, “(1-2a)” for “(1-2b)”
as §4, §5

Fusarium oxysporum = assay: Test 2 for antifungal effect, plate medium: F.c; assay type: cell-based; details: PDA plate medium
Protocol: as §1, §2, §3

Ustilago nuda = assay: Test 2 for antifungal effect, plate medium: U.n; assay type: cell-based; details: PDA plate medium
Protocol: as §1, §2, §3

Septoria tritici = assay: Test 2 for antifungal effect, plate medium: S.t; assay type: cell-based; details: PDA plate medium
Protocol: as §1, §2, §3

[1] = foliage spray 12.5 mg/L, 1,000 L/ha

CC1(CCl)CCC(Cc2ccc(F)cc2)C1(O)Cn1cncn1 (single isomer, unassigned) [Compound (1-2b), (1,2-cis, 1,5-cis)-5-(4-fluorobenzyl)-2-chloromethyl-2-methyl-1-(1H-1,2,4-triazole-1-ylmethyl)cyclopentanol]
4 (Less than 90% but not less than 80%): Antifungal index (mycelial growth inhibition rate) (Penicillium italicum; 0.08 mg/L) | Antifungal index (mycelial growth inhibition rate) (Glomerella cingurata; 0.31 mg/L) | Antifungal index (mycelial growth inhibition rate) (Fusarium oxysporum; 0.31 mg/L) | Antifungal index (mycelial growth inhibition rate) (Ustilago nuda; 0.31 mg/L) | Antifungal index (mycelial growth inhibition rate) (Ustilago nuda; 0.63 mg/L)
1 (Less than 60%): Antifungal index (mycelial growth inhibition rate) (Penicillium italicum; 0.04 mg/L) | Antifungal index (mycelial growth inhibition rate) (Rhizopus oryzae; 0.16 mg/L) | Antifungal index (mycelial growth inhibition rate) (Rhizopus oryzae; 0.31 mg/L) | Antifungal index (mycelial growth inhibition rate) (Rhizopus oryzae; 0.63 mg/L) | Antifungal index (mycelial growth inhibition rate) (Rhizopus oryzae; 1.25 mg/L) | Antifungal index (mycelial growth inhibition rate) (Fusarium oxysporum; 0.04 mg/L) | Antifungal index (mycelial growth inhibition rate) (Ustilago nuda; 0.04 mg/L) | Antifungal index (mycelial growth inhibition rate) (Ustilago nuda; 0.08 mg/L)
3 (Less than 80% but not less than 70%): Antifungal index (mycelial growth inhibition rate) (Glomerella cingurata; 0.16 mg/L) | Antifungal index (mycelial growth inhibition rate) (Fusarium oxysporum; 0.16 mg/L)
15%: Protective value (%) (Botrytis cinerea; foliage spray 3.1 mg/L, 1,000 L/ha)
80%: Protective value (%) (Puccinia recondita)
5 (90% or greater): Antifungal index (mycelial growth inhibition rate) (Penicillium italicum; 0.16 mg/L) | Antifungal index (mycelial growth inhibition rate) (Penicillium italicum; 0.31 mg/L) | Antifungal index (mycelial growth inhibition rate) (Penicillium italicum; 0.63 mg/L) | Antifungal index (mycelial growth inhibition rate) (Penicillium italicum; 1.25 mg/L) | Antifungal index (mycelial growth inhibition rate) (Glomerella cingurata; 0.63 mg/L) | Antifungal index (mycelial growth inhibition rate) (Glomerella cingurata; 1.25 mg/L) | Antifungal index (mycelial growth inhibition rate) (Glomerella cingurata; 2.50 mg/L) | Antifungal index (mycelial growth inhibition rate) (Fusarium oxysporum; 0.63 mg/L) | Antifungal index (mycelial growth inhibition rate) (Fusarium oxysporum; 1.25 mg/L) | Antifungal index (mycelial growth inhibition rate) (Ustilago nuda; 1.25 mg/L) | Antifungal index (mycelial growth inhibition rate) (Septoria tritici; 0.08 mg/L) | Antifungal index (mycelial growth inhibition rate) (Septoria tritici; 0.16 mg/L) | Antifungal index (mycelial growth inhibition rate) (Septoria tritici; 0.31 mg/L) | Antifungal index (mycelial growth inhibition rate) (Septoria tritici; 0.63 mg/L) | Antifungal index (mycelial growth inhibition rate) (Septoria tritici; 1.25 mg/L)
2 (Less than 70% but not less than 60%): Antifungal index (mycelial growth inhibition rate) (Rhizopus oryzae; 2.50 mg/L) | Antifungal index (mycelial growth inhibition rate) (Fusarium oxysporum; 0.08 mg/L) | Antifungal index (mycelial growth inhibition rate) (Ustilago nuda; 0.16 mg/L) | Antifungal index (mycelial growth inhibition rate) (Septoria tritici; 0.04 mg/L)
98%: Protective value (%) (Botrytis cinerea; [1])

CC1(CCl)CCC(Cc2ccc(Cl)cc2)C1(O)Cn1cncn1 (single isomer, unassigned) [Compound (1-1a), (1,2-cis, 1,5-cis)-5-(4-chlorobenzyl)-2-chloromethyl-2-methyl-1-(1H-1,2,4-triazole-1-ylmethyl)cyclopentanol]
100%: Protective value (%) (Botrytis cinerea; [1])
2 (Less than 70% but not less than 60%): Antifungal index (mycelial growth inhibition rate) (Ustilago nuda; 0.31 mg/L)
95%: Protective value (%) (Puccinia recondita)
5 (90% or greater): Antifungal index (mycelial growth inhibition rate) (Penicillium italicum; 0.31 mg/L) | Antifungal index (mycelial growth inhibition rate) (Penicillium italicum; 0.63 mg/L) | Antifungal index (mycelial growth inhibition rate) (Penicillium italicum; 1.25 mg/L) | Antifungal index (mycelial growth inhibition rate) (Glomerella cingurata; 0.16 mg/L) | Antifungal index (mycelial growth inhibition rate) (Glomerella cingurata; 0.31 mg/L) | Antifungal index (mycelial growth inhibition rate) (Glomerella cingurata; 0.63 mg/L) | Antifungal index (mycelial growth inhibition rate) (Glomerella cingurata; 1.25 mg/L) | Antifungal index (mycelial growth inhibition rate) (Glomerella cingurata; 2.50 mg/L) | Antifungal index (mycelial growth inhibition rate) (Rhizopus oryzae; 0.63 mg/L) | Antifungal index (mycelial growth inhibition rate) (Rhizopus oryzae; 1.25 mg/L) | Antifungal index (mycelial growth inhibition rate) (Rhizopus oryzae; 2.50 mg/L) | Antifungal index (mycelial growth inhibition rate) (Fusarium oxysporum; 0.63 mg/L) | Antifungal index (mycelial growth inhibition rate) (Fusarium oxysporum; 1.25 mg/L)
4 (Less than 90% but not less than 80%): Antifungal index (mycelial growth inhibition rate) (Penicillium italicum; 0.08 mg/L) | Antifungal index (mycelial growth inhibition rate) (Penicillium italicum; 0.16 mg/L) | Antifungal index (mycelial growth inhibition rate) (Rhizopus oryzae; 0.31 mg/L) | Antifungal index (mycelial growth inhibition rate) (Fusarium oxysporum; 0.16 mg/L) | Antifungal index (mycelial growth inhibition rate) (Fusarium oxysporum; 0.31 mg/L) | Antifungal index (mycelial growth inhibition rate) (Ustilago nuda; 1.25 mg/L)
1 (Less than 60%): Antifungal index (mycelial growth inhibition rate) (Penicillium italicum; 0.04 mg/L) | Antifungal index (mycelial growth inhibition rate) (Fusarium oxysporum; 0.04 mg/L) | Antifungal index (mycelial growth inhibition rate) (Ustilago nuda; 0.04 mg/L) | Antifungal index (mycelial growth inhibition rate) (Ustilago nuda; 0.08 mg/L) | Antifungal index (mycelial growth inhibition rate) (Ustilago nuda; 0.16 mg/L) | Antifungal index (mycelial growth inhibition rate) (Septoria tritici; 0.04 mg/L) | Antifungal index (mycelial growth inhibition rate) (Septoria tritici; 0.08 mg/L) | Antifungal index (mycelial growth inhibition rate) (Septoria tritici; 0.16 mg/L) | Antifungal index (mycelial growth inhibition rate) (Septoria tritici; 0.31 mg/L) | Antifungal index (mycelial growth inhibition rate) (Septoria tritici; 0.63 mg/L) | Antifungal index (mycelial growth inhibition rate) (Septoria tritici; 1.25 mg/L)
3 (Less than 80% but not less than 70%): Antifungal index (mycelial growth inhibition rate) (Rhizopus oryzae; 0.16 mg/L) | Antifungal index (mycelial growth inhibition rate) (Fusarium oxysporum; 0.08 mg/L) | Antifungal index (mycelial growth inhibition rate) (Ustilago nuda; 0.63 mg/L)
